In this assay the test system is H3K9me0 oligonucleosomes. The assay can be described thus: Chromatin sedimentation (clustering), H3K9me0 oligonucleosomes. It counts as biochemical, Xenopus laevis. The settings on record: 150 mM NaCl, EtBr fluorescence, n=3. As for the experimental part: Figure 3 hHP1β clusters oligonuclesomal arrays in dependence of H3K9me3. (a) Oligonucleosomes (2.5 nM) were incubated with increasing concentrations of hHP1β WT or I161A at 150 mM NaCl. DNA remaining in the supernatant after centrifugation was incubated with EtBr and measured by fluorescence reading. Data were normalized to amounts in absence of added protein. Averages of three independent experiments are plotted; error bars represent s.d.; n=3. (b) Analysis of the hydrodynamic radius of oligonucleosomes (10 nM; DNA labelled with ATTO 610) in the presence of increasing concentrations of hHP1β WT or I161A by FCS at 150 mM NaCl. For details on experimental setup see Supplementary Fig. 3. Error bars represent s.d.; n=3. (c) Oligonucleosomes were reconstituted after mixing H3K9me0 and H3K9me3 octamers at different ratio. Chromatin precipitation analysis at 150 mM NaCl was carried out with hHP1β WT at saturating concentration. Data are presented as in a. (d) Precipitation behaviour of oligonucleosomes (2.5 nM) was analysed at different concentrations of NaCl with hHP1β WT at saturating concentration. […] Precipitated material was analysed by western blotting. […] Complexes were fixed with 0.05% (v/v) glutaraldehyde, spotted on mica surfaces and analysed by scanning force microscopy. […] (h) Quantification of results representatively shown in g according to the classification on the top: A, extended; B, partially condensed; C, fully condensed; D; aggregates; n>50 for each condition.
For saturating conditions, 2.7 nM oligonucleosomes were incubated with 5 μM hHP1β proteins in 100 μl sedimentation buffer (10 mM triethanolamine (pH 7.5), 150 mM NaCl, 0.1 mM EDTA) for 1 h on ice. […] For quantification of chromatin DNA, the input and output samples were incubated with 40 μl 0.5 μg ml^−1 ethidium bromide and fluorescence was measured on a Plate CHAMELEON II fluorescence plate reader (Hidex, Turku, Finland) using a 360 nm (±5 nm) excitation filter and a 612 nm (±5 nm) emission filter. For each sample the ratio of DNA concentrations after and before centrifugation (output/input) was calculated. […]

Regarding “hHP1β WT: recombinant human heterochromatin protein 1β (GenBank NM_001127228), 185 aa”, the “chromatin clustering/aggregation, H3K9me0” value is “efficiently aggregated H3K9me3 but not H3K9me0 oligonucleosomes”. Moreover, the “chromatin clustering/aggregation, H3K9me0” value (listed as hHP1β) is recorded as “No clustering of H3K9me0 chromatin”.

“hHP1β I161A: CSD point mutant of hHP1β incapable of dimerization”: the “chromatin clustering/aggregation, H3K9me0” value was “neither the I161A mutant, nor the isolated CD or CSD had any effect on modified or unmodified chromatin”.

Values taken from paper PMC4838890, “Dynamic and flexible H3K9me3 bridging via HP1β dimerization establishes a plastic state of condensed chromatin” (Nature Communications, 2016).
